This note sets out measurements from patent US20190336496A1, “SELECTIVE BCL-2 INHIBITORS IN COMBINATION WITH AN ANTI-PD-1 OR AN ANTI-PD-L1 ANTIBODY FOR THE TREATMENT OF CANCERS” (AbbVie Inc., priority 2018, published 2019).

One test relates to A431. As to the kind of experiment: Venetoclax cell killing (CellTiter-Glo). To be noted: Homo sapiens, A-431, 120 h; Epidermoid carcinoma (skin); 10% FBS; 5 days. The test is classed as cell-based. The protocol: (§1) Solid tumor cell lines were obtained from American Type Culture Collection (ATCC, Manassas, Va.) or the National Cancer Institute (NCI) and cultured in humidified incubators at 37° C. (5% CO2) in appropriate media (specified by supplier) supplemented with 10% fetal bovine serum (FBS) or 10% human serum (HS). 24 hours after plating into 96-well or 384-well tissue culture plates, venetoclax was added to cells at various concentrations (typically 0.010 to 10 μM in half-log increments) to perform concentration-response assessments of cell killing. After 1 to 5 days of culture in the presence of venetoclax, cell viability was assessed using CellTiter-Glo® reagent (Promega). IC50 values were determined by non-linear regression analysis of the concentration response data (Table 5 and Table 6).

The test system of another test is DU4475. The test can be described thus: Venetoclax cell killing (CellTiter-Glo). Format: cell-based. Particulars: Homo sapiens, DU-4475, 120 h; Breast Cancer; 10% FBS; 5 days. As to the method:
as §1

The subject of a further test is LoVo. The test can be described thus: Venetoclax cell killing (CellTiter-Glo). The test is classed as cell-based. Particulars: Homo sapiens, 120 h, Colorectal, 10% FBS, 5 days. As to the method:
as §1

A further test has as its system MDA-MB-231. The test can be described thus: Venetoclax cell killing (CellTiter-Glo). Format: cell-based. Particulars: Homo sapiens, MDA-MB-231, 72 h; Breast Cancer; 10% FBS; 3 days. As to the method:
as §1

The test system of a further test is NCI-H1993. The test can be described thus: Venetoclax cell killing (CellTiter-Glo). Format: cell-based. To be noted: Homo sapiens, NCI-H1993, 72 h; Lung; 10% FBS; 3 days. The protocol: as §1
Another test concerns NCI-H522. The test can be described thus: Venetoclax cell killing (CellTiter-Glo). To be noted: Homo sapiens, NCI-H522, 72 h; Lung; 10% FBS; 3 days. The test is classed as cell-based. As to the method: as §1
The test system of a further test is NCI-H524. The test can be described thus: Venetoclax cell killing (CellTiter-Glo). To be noted: Homo sapiens, NCI-H524, 24 h; Lung; 10% FBS; 1 day. The test is classed as cell-based. The protocol: as §1
The subject of the next test is WM-115. As to the kind of experiment: Venetoclax cell killing (CellTiter-Glo). To be noted: Homo sapiens, WM-115, 120 h; Melanoma; 10% FBS; 5 days. The test is classed as cell-based. As to the method:
as §1

The test system of another test is CT26 tumors. As to the kind of experiment: CT26 mouse colon carcinoma syngeneic model. The test is classed as in vivo. To be noted: CT26 in BALB/c mice; venetoclax 50 mg/kg/day orally 14 days; antibody 10 mg/kg IP every 4 days, 3 times; day 18.
Another test concerns mouse splenocytes. The test can be described thus: In vitro sensitivity of mouse splenocytes. Format: cell-based. Particulars: BALB/c and C57BL/6 splenocytes, 24 hours. As to the method:
Mouse splenocytes were plated at a density of 5×10^5 cells per well in a 48-well plate with 30 U/mL IL-2. Cells were cultured for 24 hours and then increasing concentrations of venetoclax were added for an additional 24 hours (DMSO was used as control). Cells were harvested, stained and subjected to flow cytometry analysis with an LSRFortessa™ X-20 instrument (BD Biosciences).
To further explore the mechanism for immune modulation in mice, splenocytes from BALB/c and C57BL/6 mice were treated in vitro with venetoclax for 24 hours. The two types of memory T-cells in mice are central memory (TCM; […]) and effector memory T-cells (TEM; […]). While naïve T-cells (CD62L^+CD44^−) were sensitive to venetoclax, effector memory T-cells were not and, importantly, their proportion increased relative to surviving T-cells with increased concentrations of venetoclax. Central memory T-cells were not affected by venetoclax under these experimental conditions (FIG. 9).

A further test relates to CMV-positive CD8 T cells. As to the kind of experiment: CMV specific CD8 T cell response. To be noted: overnight (12-14 hours) incubation. The test is classed as cell-based, human. The text has this: The cytomegalovirus (CMV) specific assay was used to evaluate the effects of venetoclax on antigen-experienced CD8 T cells. This assay used CMV) peptide pp65 ([…], SEQ ID NO: 53) to stimulate CMV-positive CD8 T cells, and MART ([…]) peptide as a negative control. Human CMV-positive CD8 T cells and CMV peptide pp65 were purchased from Astarte Biologics and MART peptide as purchased from Genscript. 2×10^5 CMV-positive CD8 T cells were stimulated with 2×10^5 CMV pp65 peptide or MART peptide loaded T2 cells (2.5 μg/ml of peptide) with brefeldin-A in RPMI media supplemented with 10% fetal bovine serum (FBS). For measuring the IFNγ secretion in the supernatant, CMV+ CD8 T cells were activated with CMV pp65 peptide or MART peptide loaded T2 cells and incubated with venetoclax without brefeldin-A in RPMI media supplemented with 10% fetal bovine serum (FBS). […] Cells were analyzed using an LSRFortessa™ X-20 instrument (BD Biosciences). The secreted IFNγ in supernatant was measured by ELISA.
CMV+ CD8 T cells were activated by CMV pp65 peptide ([…]) loaded on T2 cells and the effect of venetoclax on the function of these cells was assessed by measuring intra-cellular and secreted IFNγ (flow cytometry and ELISA as described above). […]

Experimental for CT26 tumors: BALB/c, C57BL/6, CB6F1 (C57BL/6 bred with BALB/c) and SCID mice were obtained from Charles River (Wilmington, Mass.).
EMT6, mouse mammary carcinoma and CT26, mouse colon carcinoma, cell lines were obtained from ATCC (Manassas, Va.).
Compound (I),venetoclax, was formulated in 10% ethanol+30% PEG 400+60% Phosal® 50PG. Venetoclax was administered orally once a day for 14 days at 50 mg/kg/day.
1×10^5 CT26, EMT6 or MC38 cells were subcutaneously injected with Matrigel into the flanks of BALB/c, CB6F1 or C57BL/6 mice, respectively. Seven days later, mice were randomized to treatment groups of vehicle, venetoclax, anti-PD-1/PD-L1 or the combination of venetoclax and anti-PD-1/PD-L1. Tumor volume was determined via measurements of the length (L) and width (W) of the tumor with electronic calipers and the volume was calculated according to the following equation: V=L×W2/2 using Study Director Version 2.1.11 (Studylog Systems Inc., South San Francisco). Complete response (CR) was defined as reduction in tumor volume to ≤25 mm^3 over at least 3 successive measurements.

As for `CC1(C)CCC(CN2CCN(c3ccc(C(=O)NS(=O)(=O)c4ccc(NCC5CCOCC5)c([N+](=O)[O-])c4)c(Oc4cnc5[nH]ccc5c4)c3)CC2)=C(c2ccc(Cl)cc2)C1` [Compound (I), venetoclax], the concentration for half-maximal inhibition (IC50) in the test with A431 was 4.35 µM; in the test on DU4475, > 10 µM; in the test with LoVo it was > 10 µM; in the test on MDA-MB-231 it was 4.83 µM; in the test on NCI-H1993, 3.83 µM; in the test with NCI-H522 it was > 10 µM. Also, the concentration for half-maximal inhibition (IC50) with NCI-H524 was > 10 µM; in the test on WM-115 it was 4.96 µM. Besides, the “tumor growth inhibition (TGI)” value in the test with CT26 tumors came to 16%. In the test on mouse splenocytes, the “central memory T-cells” value is recorded as “not affected”. Also, the “sensitivity of naïve T-cells” value in the test with mouse splenocytes was “sensitive”. In addition, in the test on mouse splenocytes (increased concentrations), the “proportion of effector memory T-cells relative to surviving T-cells” value is reported as “increased”. In addition, the “number of CD8 T cells” value in the test with CMV-positive CD8 T cells is on record as “reduced”.
